≈ marks a conversion by molar mass, not a printed value.
How the values were obtained:
[1] = Cytotoxicity against human Hepa59T/VGH cells by MTT assay; assay type: functional; conditions: HEPA 59T/VGH, read-out: ED50 (the source's name)
KB = test: Cytotoxicity against human KB cells by MTT assay; assay type: functional; conditions: read-out: ED50 (the source's name)
HeLa = test: Cytotoxicity against human HeLa cells by MTT assay; assay type: functional; conditions: read-out: ED50 (the source's name)
[2] = Cytotoxicity against human Med cells by MTT assay; assay type: cell-based; conditions: read-out: ED50 (the source's name)

Structure (SMILES)	EC50 [1] [µg/mL]	EC50 (KB) [µg/mL]	EC50 (HeLa) [µg/mL]	CC50 [2] [µg/mL]
C=C1C(=O)O[C@@H]2C[C@H]1C/C=C(\C)[C@@H](O)CC/C(C)=C/CC[C@]2(C)O [MANAARENOLIDE G]	7.2 (≈ 21.5 µM)	8.7 (≈ 26 µM)	10.9 (≈ 32.6 µM)	13.4 (≈ 40.1 µM)
C=C1C(=O)O[C@@H]2C[C@H]1C/C=C(/C)[C@@H](O)CC/C(C)=C/CC[C@]2(C)O [MANAARENOLIDE H]	7.4 (≈ 22.1 µM)	7.6 (≈ 22.7 µM)	9.3 (≈ 27.8 µM)	5.8 (≈ 17.3 µM)

Source: ChEMBL document CHEMBL1158032, “Manaarenolides A-I, diterpenoids from the soft coral Sinularia manaarensis” (J Nat Prod, 2006)
